Literature values as cited in patent publication EP4605403B1, “METHOD AND COMPOSITION FOR OLIGONUCLEOTIDE SYNTHESIS” (Bachem Holding AG, priority 2022, dated 2024).

Settings: protonated form of the base; in water at 25 °C; from A. Fischer et al., J. Chem. Soc. 1964, 3591-3596

Structure (SMILES): Nc1ccncc1 [4-aminopyridine]
- pKa-value: 9.1
